Measurements taken from PMC7245553 (Cell chemical biology, 2020).

Columns and labels:
[1] = test system: clinical drug-sensitive and drug-resistant strains of M. tuberculosis; test: Whole-cell activity versus clinical M. tuberculosis strains; assay type: cell-based, Mycobacterium tuberculosis
[2] = test system: DG167-resistant M. tuberculosis; assay type: cell-based, Mycobacterium tuberculosis

| Compound | whole-cell activity versus clinical strains [1] | cross-resistance with DG167 [2] |
| --- | --- | --- |
| CCCCS(=O)(=O)Nc1ccc2[nH]c(C#N)c(C)c2c1 [Compound 9, N-(2-cyano-3-methyl-1H-indol-5-yl)butane-1-sulfonamide] | maintained their in vitro potency | cross-resistant |
| CCCCCS(=O)(=O)Nc1ccc2[nH]c(C#N)c(C)c2c1 [Compound 10, N-(2-cyano-3-methyl-1H-indol-5-yl)pentane-1-sulfonamide] | maintained their in vitro potency | cross-resistant |
| Cc1n[nH]c2ccc(NS(=O)(=O)CCCCF)cc12 [JSF-3285, 4-fluoro-N-(3-methyl-1H-indazol-5-yl)butane-1-sulfonamide] | comparable with its efficacy versus the H37Rv strain | cross-resistant with DG167 |
